Experimental data published in PubChem BioAssay (NCI).
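Assay format: 96-well plates, 48-hour exposure. GI50: concentration for 50% inhibition of growth. TGI marks complete inhibition of growth.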

How the values were obtained:
Assay in all cases: inhibition of tumour cell growth, NCI panel, 48 h; in the data active means GI50 below about 0.43 µM; inactive means the rest
786-0 renal = test system: 786-0 renal
A498 renal = test system: A498 renal
A549 NSCLC = test system: A549 NSCLC
ACHN renal = test system: ACHN renal
BT-549 breast = test system: BT-549 breast
CAKI-1 renal = test system: CAKI-1 renal
CCRF-CEM leukemia = test system: CCRF-CEM leukemia
COLO 205 colon = test system: COLO 205 colon
DU-145 prostate = test system: DU-145 prostate
EKVX NSCLC = test system: EKVX NSCLC
HCC-2998 colon = test system: HCC-2998 colon
HCT-116 colon = test system: HCT-116 colon
HCT-15 colon = test system: HCT-15 colon
HL-60(TB) leukemia = test system: HL-60(TB) leukemia
HOP-62 NSCLC = test system: HOP-62 NSCLC
HOP-92 NSCLC = test system: HOP-92 NSCLC
HS 578T breast = test system: HS 578T breast
HT29 colon = test system: HT29 colon
IGROV1 ovarian = test system: IGROV1 ovarian
K-562 leukemia = test system: K-562 leukemia
KM12 colon = test system: KM12 colon
LOX IMVI melanoma = test system: LOX IMVI melanoma
M14 melanoma = test system: M14 melanoma
MALME-3M melanoma = test system: MALME-3M melanoma
MCF7 breast = test system: MCF7 breast
MDA-MB-231 breast = test system: MDA-MB-231 breast
MOLT-4 leukemia = test system: MOLT-4 leukemia
NCI-H226 lung = test system: NCI-H226 lung
NCI-H23 lung = test system: NCI-H23 lung
NCI-H460 lung = test system: NCI-H460 lung
NCI-H522 lung = test system: NCI-H522 lung
NCI/ADR-RES ovarian = test system: NCI/ADR-RES ovarian
OVCAR-3 ovarian = test system: OVCAR-3 ovarian
OVCAR-4 ovarian = test system: OVCAR-4 ovarian
OVCAR-5 ovarian = test system: OVCAR-5 ovarian
OVCAR-8 ovarian = test system: OVCAR-8 ovarian
PC-3 prostate = test system: PC-3 prostate
RPMI-8226 leukemia = test system: RPMI-8226 leukemia
RXF 393 renal = test system: RXF 393 renal
SF-268 CNS = test system: SF-268 CNS
SF-295 CNS = test system: SF-295 CNS
SF-539 CNS = test system: SF-539 CNS
SK-MEL-2 melanoma = test system: SK-MEL-2 melanoma
SK-MEL-5 melanoma = test system: SK-MEL-5 melanoma
SK-OV-3 ovarian = test system: SK-OV-3 ovarian
SN12C renal = test system: SN12C renal
SNB-19 CNS = test system: SNB-19 CNS
SNB-75 CNS = test system: SNB-75 CNS
SR leukemia = test system: SR leukemia
SW-620 colon = test system: SW-620 colon
T-47D breast = test system: T-47D breast
TK-10 renal = test system: TK-10 renal
U251 CNS = test system: U251 CNS
UACC-257 melanoma = test system: UACC-257 melanoma
UACC-62 melanoma = test system: UACC-62 melanoma
UO-31 renal = test system: UO-31 renal
MDA-MB-435 = test system: MDA-MB-435
SK-MEL-28 melanoma = test system: SK-MEL-28 melanoma

CCO/C=N/C1=C(C#N)C(c2ccc(OC)cc2)c2sc3c(F)cccc3c2O1 (stereo not given)
16.3 µM: TGI (RPMI-8226 leukemia)
13.5 µM: TGI (MOLT-4 leukemia) | TGI (NCI-H460 lung)
inactive: GI50 (786-0 renal) 4.85 µM | GI50 (A498 renal) 2.18 µM | GI50 (A549 NSCLC) 2.22 µM | GI50 (ACHN renal) 5.57 µM | GI50 (BT-549 breast) 7.17 µM | GI50 (CAKI-1 renal) 3.3 µM | GI50 (CCRF-CEM leukemia) 2.69 µM | GI50 (COLO 205 colon) 3.33 µM | GI50 (DU-145 prostate) 3.57 µM | GI50 (EKVX NSCLC) 7.12 µM | GI50 (HCC-2998 colon) 5.12 µM | GI50 (HCT-116 colon) 2.02 µM | GI50 (HCT-15 colon) 1.67 µM | GI50 (HL-60(TB) leukemia) 2 µM | GI50 (HOP-62 NSCLC) 2.9 µM | GI50 (HOP-92 NSCLC) 3.21 µM | GI50 (HS 578T breast) 2.11 µM | GI50 (HT29 colon) 3.23 µM | GI50 (IGROV1 ovarian) 2.73 µM | GI50 (K-562 leukemia) 0.537 µM | GI50 (KM12 colon) 2.52 µM | GI50 (LOX IMVI melanoma) 3.08 µM | GI50 (M14 melanoma) 1.7 µM | GI50 (MALME-3M melanoma) 11.3 µM | GI50 (MCF7 breast) 1.44 µM | GI50 (MDA-MB-231 breast) 3.87 µM | GI50 (MOLT-4 leukemia) 2.8 µM | GI50 (NCI-H226 lung) 2.89 µM | GI50 (NCI-H23 lung) 3.29 µM | GI50 (NCI-H460 lung) 2.82 µM | GI50 (NCI-H522 lung) 0.569 µM | GI50 (NCI/ADR-RES ovarian) 1.25 µM | GI50 (OVCAR-3 ovarian) 2.2 µM | GI50 (OVCAR-4 ovarian) 5.59 µM | GI50 (OVCAR-5 ovarian) 6.8 µM | GI50 (OVCAR-8 ovarian) 4.06 µM | GI50 (PC-3 prostate) 2.86 µM | GI50 (RPMI-8226 leukemia) 3.26 µM | GI50 (RXF 393 renal) 2 µM | GI50 (SF-268 CNS) 4.31 µM | GI50 (SF-295 CNS) 4.44 µM | GI50 (SF-539 CNS) 2.18 µM | GI50 (SK-MEL-2 melanoma) 3.8 µM | GI50 (SK-MEL-5 melanoma) 3.24 µM | GI50 (SK-OV-3 ovarian) 4.67 µM | GI50 (SN12C renal) 3.75 µM | GI50 (SNB-19 CNS) 4.02 µM | GI50 (SNB-75 CNS) 1.66 µM | GI50 (SR leukemia) 1.04 µM | GI50 (SW-620 colon) 2.2 µM | GI50 (T-47D breast) 3.51 µM | GI50 (TK-10 renal) 6.74 µM | GI50 (U251 CNS) 3.48 µM | GI50 (UACC-257 melanoma) 14.8 µM | GI50 (UACC-62 melanoma) 1.84 µM | GI50 (UO-31 renal) 4.03 µM
62.3 µM: TGI (SF-295 CNS)
32.6 µM: TGI (HCC-2998 colon)
47.5 µM: TGI (HOP-62 NSCLC)
57.2 µM: TGI (DU-145 prostate)
16.5 µM: TGI (RXF 393 renal)
30.7 µM: TGI (MDA-MB-231 breast)
16.6 µM: TGI (HT29 colon)
9.7 µM: TGI (OVCAR-3 ovarian)
76.3 µM: TGI (OVCAR-5 ovarian)
17.5 µM: TGI (SR leukemia)
68.9 µM: TGI (786-0 renal)
7.93 µM: TGI (HS 578T breast)
15.7 µM: TGI (SK-MEL-5 melanoma)
26.7 µM: TGI (HCT-15 colon)
15 µM: TGI (COLO 205 colon)
19.7 µM: TGI (U251 CNS)
5.67 µM: TGI (SNB-75 CNS)
55 µM: TGI (SN12C renal)
> 100 µM: TGI (A549 NSCLC) | TGI (ACHN renal) | TGI (BT-549 breast) | TGI (CAKI-1 renal) | TGI (EKVX NSCLC) | TGI (HCT-116 colon) | TGI (IGROV1 ovarian) | TGI (K-562 leukemia) | TGI (M14 melanoma) | TGI (MALME-3M melanoma) | TGI (NCI-H23 lung) | TGI (OVCAR-4 ovarian) | TGI (OVCAR-8 ovarian) | TGI (PC-3 prostate) | TGI (SF-268 CNS) | TGI (SK-OV-3 ovarian) | TGI (SNB-19 CNS) | TGI (SW-620 colon) | TGI (T-47D breast) | TGI (TK-10 renal) | TGI (UACC-257 melanoma) | TGI (UACC-62 melanoma) | TGI (UO-31 renal)
6.28 µM: TGI (SF-539 CNS)
28.7 µM: TGI (CCRF-CEM leukemia)
50.9 µM: TGI (MCF7 breast)
43.6 µM: TGI (HOP-92 NSCLC)
78.3 µM: TGI (SK-MEL-2 melanoma)
5.5 µM: TGI (HL-60(TB) leukemia)
3.84 µM: TGI (NCI-H522 lung)
5.03 µM: TGI (NCI/ADR-RES ovarian)
42.1 µM: TGI (NCI-H226 lung)
12.4 µM: TGI (LOX IMVI melanoma)
72 µM: TGI (KM12 colon)
7.8 µM: TGI (A498 renal)

Clc1ccc(OCc2nn3c(CCCCc4nnc5sc(COc6ccc(Cl)cc6Cl)nn45)nnc3s2)c(Cl)c1
89.7 µM: TGI (U251 CNS)
92 µM: TGI (TK-10 renal)
74.4 µM: TGI (OVCAR-3 ovarian)
61 µM: TGI (K-562 leukemia)
59.6 µM: TGI (RPMI-8226 leukemia)
inactive: GI50 (786-0 renal) 65.4 µM | GI50 (A549 NSCLC) 82.6 µM | GI50 (ACHN renal) 93.6 µM | GI50 (BT-549 breast) 54.2 µM | GI50 (CAKI-1 renal) 40.1 µM | GI50 (CCRF-CEM leukemia) 51 µM | GI50 (COLO 205 colon) 52 µM | GI50 (DU-145 prostate) 71.9 µM | GI50 (EKVX NSCLC) 57.5 µM | GI50 (HCC-2998 colon) 35.3 µM | GI50 (HCT-116 colon) 18.1 µM | GI50 (HCT-15 colon) > 100 µM | GI50 (HL-60(TB) leukemia) > 100 µM | GI50 (HOP-62 NSCLC) 60.1 µM | GI50 (HOP-92 NSCLC) 50.3 µM | GI50 (HS 578T breast) 36.7 µM | GI50 (HT29 colon) > 100 µM | GI50 (IGROV1 ovarian) 83 µM | GI50 (K-562 leukemia) 22.7 µM | GI50 (KM12 colon) 31.9 µM | GI50 (LOX IMVI melanoma) 67.1 µM | GI50 (MCF7 breast) 48.1 µM | GI50 (MDA-MB-231 breast) 44.3 µM | GI50 (MDA-MB-435) 49.6 µM | GI50 (MOLT-4 leukemia) 18.4 µM | GI50 (NCI-H226 lung) 38 µM | GI50 (NCI-H23 lung) 37.3 µM | GI50 (NCI-H460 lung) 71.9 µM | GI50 (NCI-H522 lung) 45.2 µM | GI50 (NCI/ADR-RES ovarian) 35.8 µM | GI50 (OVCAR-3 ovarian) 30.4 µM | GI50 (OVCAR-4 ovarian) 50.3 µM | GI50 (OVCAR-5 ovarian) > 100 µM | GI50 (OVCAR-8 ovarian) 46.2 µM | GI50 (PC-3 prostate) 47.8 µM | GI50 (RPMI-8226 leukemia) 25.4 µM | GI50 (RXF 393 renal) 83.9 µM | GI50 (SF-268 CNS) 73.1 µM | GI50 (SF-295 CNS) 40.6 µM | GI50 (SF-539 CNS) 55.8 µM | GI50 (SK-MEL-2 melanoma) > 100 µM | GI50 (SK-MEL-28 melanoma) > 100 µM | GI50 (SK-MEL-5 melanoma) 42 µM | GI50 (SK-OV-3 ovarian) > 100 µM | GI50 (SN12C renal) 94.3 µM | GI50 (SNB-19 CNS) 76.8 µM | GI50 (SNB-75 CNS) 33.3 µM | GI50 (SW-620 colon) > 100 µM | GI50 (T-47D breast) 43.9 µM | GI50 (TK-10 renal) 32.6 µM | GI50 (U251 CNS) 29 µM | GI50 (UACC-257 melanoma) 72.7 µM | GI50 (UACC-62 melanoma) 69.4 µM | GI50 (UO-31 renal) > 100 µM
48.5 µM: TGI (MOLT-4 leukemia)
63.1 µM: TGI (HCT-116 colon)
> 100 µM: TGI (786-0 renal) | TGI (A549 NSCLC) | TGI (ACHN renal) | TGI (BT-549 breast) | TGI (CAKI-1 renal) | TGI (CCRF-CEM leukemia) | TGI (COLO 205 colon) | TGI (DU-145 prostate) | TGI (EKVX NSCLC) | TGI (HCC-2998 colon) | TGI (HCT-15 colon) | TGI (HL-60(TB) leukemia) | TGI (HOP-62 NSCLC) | TGI (HOP-92 NSCLC) | TGI (HS 578T breast) | TGI (HT29 colon) | TGI (IGROV1 ovarian) | TGI (KM12 colon) | TGI (LOX IMVI melanoma) | TGI (MCF7 breast) | TGI (MDA-MB-231 breast) | TGI (MDA-MB-435) | TGI (NCI-H226 lung) | TGI (NCI-H23 lung) | TGI (NCI-H460 lung) | TGI (NCI-H522 lung) | TGI (NCI/ADR-RES ovarian) | TGI (OVCAR-4 ovarian) | TGI (OVCAR-5 ovarian) | TGI (OVCAR-8 ovarian) | TGI (PC-3 prostate) | TGI (RXF 393 renal) | TGI (SF-268 CNS) | TGI (SF-295 CNS) | TGI (SF-539 CNS) | TGI (SK-MEL-2 melanoma) | TGI (SK-MEL-28 melanoma) | TGI (SK-MEL-5 melanoma) | TGI (SK-OV-3 ovarian) | TGI (SN12C renal) | TGI (SNB-19 CNS) | TGI (SNB-75 CNS) | TGI (SW-620 colon) | TGI (T-47D breast) | TGI (UACC-257 melanoma) | TGI (UACC-62 melanoma) | TGI (UO-31 renal)
